In PubChem BioAssay AID248 (DTP/NCI, 2004):
Where “and” joins values, the source holds several entries; their conditions need not be identical. Equal entries are not always repeated. Toxic doses and inconclusive results are not listed. No stated cut-off is given here; in the data, active means T/C of 150% or more; inactive means T/C below 125%.

Tested on: L1210 leukemia ip in BDF1 mice, survival T/C
Assay: NCI In Vivo Anticancer Drug Screen. Data for tumor model L1210 Leukemia (intraperitoneal) in B6D2F1 (BDF1) mice
Settings: endpoint: mean survival time, higher = longer survival
Summary of the method: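 In this screen, tumor-bearing mice given compound are compared to those given vehicle, and their survival values are reported as a treated-to-control quotient.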

[1] = dose: 100.0 mg/kg/injection, schedule: Q01DX009 (ip), vehicle: saline with Tween-80
[2] = dose: 100.0 mg/kg/injection, schedule: Q04DX003 (ip), vehicle: saline with Tween-80
[3] = dose: 200.0 mg/kg/injection, schedule: Q01DX009 (ip), vehicle: saline with Tween-80
[4] = dose: 200.0 mg/kg/injection, schedule: Q04DX003 (ip), vehicle: saline with Tween-80
[5] = dose: 400.0 mg/kg/injection, schedule: Q04DX003 (ip), vehicle: saline with Tween-80
[6] = dose: 100.0 mg/kg/injection, schedule: Q01DX001 (ip), vehicle: saline
[7] = dose: 200.0 mg/kg/injection, schedule: Q01DX001 (ip), vehicle: saline
[8] = dose: 400.0 mg/kg/injection, schedule: Q01DX001 (ip), vehicle: saline
[9] = dose: 100.0 mg/kg/injection, schedule: Q04DX003 (ip), vehicle: Klucel (hydroxypropylcellulose) (HPC)
[10] = dose: 200.0 mg/kg/injection, schedule: Q04DX003 (ip), vehicle: Klucel (hydroxypropylcellulose) (HPC)
[11] = dose: 50.0 mg/kg/injection, schedule: Q01DX009 (ip), vehicle: saline
[12] = dose: 100.0 mg/kg/injection, schedule: Q01DX009 (ip), vehicle: saline
[13] = dose: 400.0 mg/kg/injection, schedule: Q04DX002 (ip), vehicle: saline with Tween-80
[14] = dose: 100.0 mg/kg/injection, schedule: Q04DX002 (ip), vehicle: saline with Tween-80

Measured: T/C

O=Cc1ccc([N+](=O)[O-])s1
inactive: [1] 101 % of control | [2] 102 % of control | [3] 97 % of control | [4] 110 % of control | dose: 400.0 mg/kg/injection, schedule: Q01DX009 (ip), vehicle: saline with Tween-80 101 % of control | [5] 121 % of control

Cc1cccc(NC(=O)OCCN(CCOC(=O)Nc2cccc(C)c2)c2cccc(C)c2)c1
inactive: [6] 88 % of control | [7] 90 % of control | [8] 94 % of control

Oc1c(Cl)cc(C(c2cc(Cl)c(O)c(Cl)c2)c2ccccn2)cc1Cl
inactive: [9] 100 % of control | [10] 104 % of control | dose: 400.0 mg/kg/injection, schedule: Q04DX003 (ip), vehicle: Klucel (hydroxypropylcellulose) (HPC) 93 % of control

O=P(O)(O)OP(=O)(O)OP(=O)(O)OCC1OC(N2C=NC3C4NC=CN4CNC32)C(O)C1O (stereo not drawn)
inactive: dose: 3.13 mg/kg/injection, schedule: Q03HX024 (ip), vehicle: saline 97 % of control | dose: 6.25 mg/kg/injection, schedule: Q03HX024 (ip), vehicle: saline 93 % of control | dose: 7.5 mg/kg/injection, schedule: Q03HX024 (ip), vehicle: saline 95 % of control | dose: 15.0 mg/kg/injection, schedule: Q03HX024 (ip), vehicle: saline 93 % of control

CCN(CC)CCOC(=O)c1cccc(N)c1
inactive: [11] 92 % of control | [12] 111 % of control | dose: 200.0 mg/kg/injection, schedule: Q01DX009 (ip), vehicle: saline 103 % of control

O=C(c1ccc(O)cc1O)c1ccc(O)cc1O
inactive: dose: 50.0 mg/kg/injection, schedule: Q04DX002 (ip), vehicle: gum acacia 114 % of control | dose: 100.0 mg/kg/injection, schedule: Q04DX002 (ip), vehicle: gum acacia 104 % of control | dose: 200.0 mg/kg/injection, schedule: Q04DX002 (ip), vehicle: gum acacia 86 % of control

O=[N+]([O-])c1ccc(S(=O)(=O)Oc2ccccc2)cc1
inactive: dose: 50.0 mg/kg/injection, schedule: Q01DX009 (ip), vehicle: saline sonified 93 % of control | dose: 100.0 mg/kg/injection, schedule: Q01DX009 (ip), vehicle: saline sonified 103 % of control | [9] 98 % of control | dose: 200.0 mg/kg/injection, schedule: Q01DX009 (ip), vehicle: saline sonified 92 % of control | [10] 91 % of control

COc1ccc(C(CC(=O)c2ccc3c(c2)OCO3)c2c(O)c3ccccc3oc2=O)cc1OC (stereo not drawn)
inactive: dose: 50.0 mg/kg/injection, schedule: Q01DX009 (ip), vehicle: saline with Tween-80 96 % of control | [1] 96 % of control | [2] 94 % of control | [3] 91 % of control | [4] 89 % of control | [5] 88 % of control

Cc1cc(Cl)ccc1NC(C)(C)C
inactive: dose: 75.0 mg/kg/injection, schedule: Q04DX002 (ip), vehicle: Klucel (hydroxypropylcellulose) (HPC) 104 % of control | dose: 150.0 mg/kg/injection, schedule: Q04DX002 (ip), vehicle: Klucel (hydroxypropylcellulose) (HPC) 108 % of control | dose: 300.0 mg/kg/injection, schedule: Q04DX002 (ip), vehicle: Klucel (hydroxypropylcellulose) (HPC) 104 % of control

COc1ccc(NS(=O)c2ccc(Oc3ccccc3)cc2)cc1 (stereo not drawn)
inactive: dose: 25.6 mg/kg/injection, schedule: Q04DX002 (ip), vehicle: saline with Tween-80 106 % of control | dose: 64.0 mg/kg/injection, schedule: Q04DX002 (ip), vehicle: saline with Tween-80 112 % of control | dose: 160.0 mg/kg/injection, schedule: Q04DX002 (ip), vehicle: saline with Tween-80 101 % of control | [13] 93 % of control

Nc1nc(-c2cccc(NC(=O)c3ccc(S(=O)(=O)F)cc3)c2)nc2[nH]ncc12
inactive: dose: 25.0 mg/kg/injection, schedule: Q01DX001 (ip), vehicle: Klucel (hydroxypropylcellulose) (HPC) 86 % of control | dose: 50.0 mg/kg/injection, schedule: Q01DX001 (ip), vehicle: Klucel (hydroxypropylcellulose) (HPC) 94 % of control | dose: 100.0 mg/kg/injection, schedule: Q01DX001 (ip), vehicle: Klucel (hydroxypropylcellulose) (HPC) 86 % of control

CCCNC(Cc1ccccc1)c1ccco1 (stereo not drawn)
inactive: [11] 104 % of control | [12] 110 % of control | dose: 100.0 mg/kg/injection, schedule: Q04DX002 (ip), vehicle: saline 97 % of control | dose: 200.0 mg/kg/injection, schedule: Q04DX002 (ip), vehicle: saline 93 % of control

CCCCC(CCCC)NC(C)CO (stereo not drawn)
inactive: dose: 75.0 mg/kg/injection, schedule: Q01DX001 (ip), vehicle: saline 102 % of control

CC1(CO)CC2C=CC1C2 (stereo not drawn)
inactive: [14] 99 % of control | dose: 200.0 mg/kg/injection, schedule: Q04DX002 (ip), vehicle: saline with Tween-80 99 % of control | [13] 99 % of control

CCOC(=O)Sc1ncnc2nc[nH]c12
inactive: dose: 10.0 mg/kg/injection, schedule: Q01DX Z (ip), vehicle: carboxymethylcellulose (CMC) 117 % of control

Nc1ccc(Cl)cc1C(=O)c1ccccc1
inactive: dose: 25.0 mg/kg/injection, schedule: Q04DX002 (ip), vehicle: DMSO 95 % of control | dose: 50.0 mg/kg/injection, schedule: Q04DX002 (ip), vehicle: DMSO 89 % of control | dose: 100.0 mg/kg/injection, schedule: Q04DX002 (ip), vehicle: DMSO 106 % of control and 88 % of control

CC1(O)CSC(C)(O)CS1 (stereo not drawn)
inactive: dose: 50.0 mg/kg/injection, schedule: Q04DX002 (ip), vehicle: saline with Tween-80 98 % of control | [14] 88 % of control

CC(=O)OC1CCC2(C)C(CCC3C4CC(N5CC5)C(C(C)=O)C4(C)CC(=O)C32)C1 (stereo not drawn)
inactive: dose: 100.0 mg/kg/injection, schedule: Q01DX001 (sc), vehicle: steriod suspending solution 99 % of control | dose: 200.0 mg/kg/injection, schedule: Q01DX001 (sc), vehicle: steriod suspending solution 100 % of control | dose: 400.0 mg/kg/injection, schedule: Q01DX001 (sc), vehicle: steriod suspending solution 94 % of control

CCC(CO)Nc1nncc2ccccc12 (stereo not drawn)
inactive: [6] 98 % of control | [7] 96 % of control | [8] 104 % of control

CCOC1OC(=O)c2cccc3ccc4cccc1c4c23 (stereo not drawn)
inactive: dose: 100.0 mg/kg/injection, schedule: Q04DX002 (ip), vehicle: Klucel (hydroxypropylcellulose) (HPC) 90 % of control | dose: 200.0 mg/kg/injection, schedule: Q04DX002 (ip), vehicle: Klucel (hydroxypropylcellulose) (HPC) 86 % of control | dose: 400.0 mg/kg/injection, schedule: Q04DX002 (ip), vehicle: Klucel (hydroxypropylcellulose) (HPC) 93 % of control

OCC1OC(Sc2ncc3cnccn23)C(O)C(O)C1O (stereo not drawn)
inactive: dose: 100.0 mg/kg/injection, schedule: Q01DX005 (ip), vehicle: saline 100 % of control | dose: 200.0 mg/kg/injection, schedule: Q01DX005 (ip), vehicle: saline 100 % of control
